The record followed here is ChEMBL document CHEMBL1127755, “Comparative molecular field analysis using GRID force-field and GOLPE variable selection methods in a study of inhibitors of glycogen phosphorylase b” (J Med Chem, 1994).

The structures appear in SMILES notation.

The target of this assay is Glycogen phosphorylase, muscle form (Oryctolagus cuniculus) (UniProt P00489). Nature of the assay: Tested for inhibition constant against glycogen phosphorylase b. Details: scale not given here.
Chain of Glycogen phosphorylase, muscle form (Oryctolagus cuniculus) (P00489 whole entry, looked up): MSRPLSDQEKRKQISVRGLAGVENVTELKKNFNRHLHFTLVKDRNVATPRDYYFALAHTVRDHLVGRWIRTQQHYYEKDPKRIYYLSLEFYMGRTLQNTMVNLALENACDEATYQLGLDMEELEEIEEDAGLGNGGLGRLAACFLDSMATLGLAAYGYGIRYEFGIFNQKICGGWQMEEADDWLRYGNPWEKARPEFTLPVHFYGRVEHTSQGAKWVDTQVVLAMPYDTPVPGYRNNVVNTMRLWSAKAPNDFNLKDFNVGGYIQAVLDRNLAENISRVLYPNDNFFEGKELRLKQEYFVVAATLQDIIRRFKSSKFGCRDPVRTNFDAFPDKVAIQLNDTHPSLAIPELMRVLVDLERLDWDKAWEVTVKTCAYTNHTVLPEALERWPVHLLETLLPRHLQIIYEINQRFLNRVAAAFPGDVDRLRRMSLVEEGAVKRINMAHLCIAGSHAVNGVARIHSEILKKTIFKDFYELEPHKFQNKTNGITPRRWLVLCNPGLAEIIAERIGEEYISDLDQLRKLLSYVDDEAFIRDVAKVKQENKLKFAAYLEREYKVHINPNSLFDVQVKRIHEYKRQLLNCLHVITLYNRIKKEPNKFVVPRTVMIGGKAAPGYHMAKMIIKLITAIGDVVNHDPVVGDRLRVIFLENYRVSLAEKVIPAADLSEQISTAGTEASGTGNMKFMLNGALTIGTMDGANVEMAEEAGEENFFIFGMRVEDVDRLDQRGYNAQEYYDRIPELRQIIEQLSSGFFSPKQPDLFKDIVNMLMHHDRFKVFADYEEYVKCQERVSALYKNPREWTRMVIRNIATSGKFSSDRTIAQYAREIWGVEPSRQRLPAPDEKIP
`NC(=O)[C@@H]1O[C@H](CO)[C@@H](O)[C@H](O)[C@H]1O` gave an Exp Inhib Constant of -1.61.
Under `COC(=O)C1OC(CO)C(O)C(O)C1O` (stereo in doubt; 31) stands 3.19; under `NC(=O)C1OC(CO)C(O)C(O)C1O` (stereo in doubt; 20), -0.99.
Take `OCCO[C@@H]1O[C@H](CO)[C@@H](O)[C@H](O)[C@H]1O`: the Exp Inhib Constant is 3.23.
Under `CC1OC(CO)C(O)C(O)C1O` (stereo not given) stands 3.97; under `O=C(CCl)N[C@H]1O[C@H](CO)[C@@H](O)[C@H](O)[C@H]1O`, -3.22; under `NNC(=O)[C@@H]1O[C@H](CO)[C@@H](O)[C@H](O)[C@H]1O` (stereo in doubt; 25), 1.1.
With `NCC1OC(CO)C(O)C(O)C1O` (stereo in doubt; 15), the Exp Inhib Constant was 2.82.
Consider `CS(=O)(=O)OC[C@]1(O)O[C@@H](CO)[C@@H](O)[C@H](O)[C@@H]1O`, for which the Exp Inhib Constant amounted to 1.31.
The compound `NC(=O)C1OC(CO)C(O)C(O)C1O` (stereo in doubt; 27) displayed an Exp Inhib Constant of -0.82.
The figure for `[N-]=[N+]=NC[C@@H]1O[C@H](CO)[C@@H](O)[C@H](O)[C@H]1O` is 2.72; for `[N-]=[N+]=NC[C@H]1O[C@H](CO)[C@@H](O)[C@H](O)[C@H]1O` it is 3.11.
Under `OC[C@H]1O[C@H](OCC2O[C@@H](O)[C@H](O)[C@@H](O)[C@@H]2O)[C@H](O)[C@@H](O)[C@H]1O` (stereo not given in full) stands 2.79.
Under `NNC(=O)[C@@H]1O[C@H](CO)[C@@H](O)[C@H](O)[C@H]1O` (stereo in doubt; 35) stands -0.92.
Compound `OC[C@H]1O[C@@H](Oc2cc3ccccc3[nH]2)[C@H](O)[C@@H](O)[C@@H]1O` registered an Exp Inhib Constant of 0.96.
`NC(=O)[C@H]1O[C@H](CO)[C@@H](O)[C@H](O)[C@H]1O` yielded an Exp Inhib Constant of 3.6.
Under `OC[C@@H]1O[C@@](O)(CO)[C@@H](O)[C@@H](O)[C@@H]1O` stands 2.76; under `NCCC1OC(CO)C(O)C(O)C1O` (stereo not given), 1.5.
For `[N-]=[N+]=NC[C@@]1(O)O[C@@H](CO)[C@@H](O)[C@H](O)[C@@H]1O`, the Exp Inhib Constant stood at 2.
Take `OCc1ccccc1O[C@H]1O[C@H](CO)[C@@H](O)[C@H](O)[C@H]1O`: the Exp Inhib Constant turned out to be 2.15.
Turning to `OCC1OC(F)C(F)C(O)C1O` (stereo not given), the Exp Inhib Constant is -1.61.
As for `CO[C@@H]1O[C@H](CO)[C@H](O)[C@H](O)[C@H]1O`, the Exp Inhib Constant was found to be 3.21.
Under `OCC1OC(S)C(O)C(O)C1O` (stereo not given) stands 0; under `O=C(Nc1ccccc1)C1OC(CO)C(O)C(O)C1O` (stereo not given), 2.53; under `CO[C@H]1O[C@H](CO)[C@H](O)[C@H](O)[C@H]1O`, 2.49.
Under `CS(=O)(=O)OCC1OC(CO)C(O)C(O)C1O` (stereo not given) stands 1.57.
As to `O=C(Nc1ccc(O)cc1)C1OC(CO)C(O)C(O)C1O` (stereo not given), the Exp Inhib Constant came out at 1.72.
Under `N#CC[C@]1(O)O[C@H](CO)[C@@H](O)[C@H](O)[C@H]1O` stands 2.03.
The figure for `O[C@@H]1[C@@H](O)[C@@H](O)O[C@H](CS)[C@H]1O` is 0.69; for `NCC1OC(CO)C(O)C(O)C1O` (stereo in doubt; 14) it is 3.54.
The figure for `COC(=O)C1OC(CO)C(O)C(O)C1O` (stereo in doubt; 33) is 0.92.
Turning to `OCC1OC(CO)C(O)C(O)C1O` (stereo in doubt; 9), the Exp Inhib Constant came out at 0.41.
The compound `OCC1OC(CO)C(O)C(O)C1O` (stereo in doubt; 10) showed an Exp Inhib Constant of 3.09.
The figure for `NC(=O)CS[C@H]1O[C@H](CO)[C@@H](O)[C@H](O)[C@H]1O` is 3.05; for `N#CC[C@@H]1O[C@H](CO)[C@@H](O)[C@H](O)[C@H]1O` it is 2.2.
